# Measured values: patent US20040077651A1, “Remedies for cancer” (priority 2000, published 2004)
# Target: T1, Human type-X sPLA2 (Homo sapiens, UniProt O15496)
# T1 construct: made in house; unpurified culture supernatant
# T1 sequence (O15496 43-165): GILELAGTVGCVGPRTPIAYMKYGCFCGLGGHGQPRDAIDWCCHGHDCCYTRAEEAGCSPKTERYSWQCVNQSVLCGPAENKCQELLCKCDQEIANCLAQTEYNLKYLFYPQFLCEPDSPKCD
# Assay: Type-X sPLA2 inhibition test (chromogenic assay, diheptanoylthio PC)
# Format: biochemical
# Conditions: culture supernatant of CHO cells expressing human type-X sPLA2, 30 min at 40° C., absorbance at 405 nm
# Text: cDNA sequence encoding human type-X sPLA2 (Cupillard et al., J. Biol. Chem, 1997, 272, 15745-15752) was inserted into the downstream region of the promoter of pSVL SV40 Late Promoter Expression Vector (Amersham Pharmacia Biotech Inc.) that is an expression vector for mammalian cells. The obtained expression vector was transfected into the host CHO cells with a LipofectAMINE reagent (Gibco BRL Inc.) according to the manufacture's instruction to obtain the CHO cells stably expressing human type-X sPLA2. The transfected cell was cultured in α-MEM medium containing 10% fetal calf serum for 3 days and its culture supernatant was used for the measurement of each enzyme activity.
# In order to identify and evaluate an inhibitor of type-X sPLA2, the following chromogenic assay is utilized. This assay has been applied for high volume screening using a 96-well microtiterplate. A general explanation for this assay is described in “Analysis of Human Synovial Fluid Phospholipase A2 on Short Chain Phosphatidylcholine-Mixed Micelles: Development of a Spectrophotometric Assay Suitable for a Micortiterplate Reader” (Analytical Biochemistry, 204, pp 190-197, 1992 by Laure. J. Reynolds. Lori L. Hughes and Edward A. Dennis.
# Test compounds (or solvent blank) were added according to the alignment of plates that had been previously set. Human type-X sPLA2 was incubated (30 min at 40° C. (15 μl/well)) with diheptanoylthio PC (1 mM) in the presence of Triton X-100 (0.3 mM) and 5,5′-dithiobis(2-nitrobenzoic acid) (125 μM) in Tris-HCl buffer (25 mM, pH 7.5) containing CaCl2 (10 mM), KCl (100 mM), and bovine serum albumin (1.0 mg/mL). The changes in the absorbance at 405 nm were measured and the inhibition activities were calculated.
# The IC50 value was determined by plotting the log concentration of the above-mentioned compounds (1)-(19) with respect to their inhibition values within 10% to 90% inhibitory range.
row,IC50 [nM],Structure (SMILES)
1,17,CCCc1c(C(=O)C(N)=O)c2c(OCC(=O)O)nc(C)cn2c1CCc1ccccc1 [Compound 6]
2,10,NC(=O)c1cccc2c1c1c(OCC(=O)O)cc(-c3ccco3)cc1n2Cc1ccccc1 [Compound 11]
3,5,NC(=O)C1=CCCc2c1c1c(OCC(=O)O)cccn1c2Cc1ccccc1 [Compound 7]
